Earlier results on eight compounds are cited in US8079695B2, “Inkjet inks having improved print uniformity” (Eastman Kodak Company, priority 2008, dated 2011).

Each structure is given as a SMILES string.

For this data set the following is noted: measured and predicted values (handbooks or ACD/LABS v8.14); lowest pKa given for di-carboxylic acids.
As to `C=C(C)C(=O)OCCS(=O)(=O)O` [2-propenoic acid, 2-methyl-, 2-sulfoethyl ester], the pKa is given as 1.0.

For the compound `O=C(O)/C=C/Cl` [trans-chloroacrylic acid], the pKa is given as 3.7.

With `C=C(C)C(=O)O` [Methacrylic acid (MA), Methacrylic acid], the pKa was 4.7.

For `C/C(=C\C(=O)O)C(=O)O` [Mesaconic acid], the pKa is listed as 3.1.

For the compound `C=CCS(=O)(=O)O` [Allyl sulfonic acid], the pKa is given as 1.5.

For the compound `C=CC(=O)NC(C)(C)CS(=O)(=O)O` [2-acrylamido-2-methylpropane sulfonic acid], the pKa is on record as 1.7.

For `C=CC(=O)O` [Acrylic acid], the pKa is 4.3.

For `C=C(Cl)C(=O)O` [α-chloroacrylic acid], the pKa is given as 3.3.
